{"source": "patent US8114909B2", "about": "“Treating or preventing restless legs syndrome using prodrugs of GABA analogs” (XenoPort, Inc., priority 2003, dated 2012)", "assay": "drug release from the sustained release oral osmotic dosage form in artificial gastric fluid", "type": "physicochemical", "conditions": "release of prodrug from the osmotic sustained release dosage form of Example 1 (700 mg drug composition, one 10 mil passageway)", "description": "The bilayered arrangements next are coated with a semipermeable wall. The wall-forming composition comprises 100% cellulose acetate having a ˜40% acetyl content. The polymer is dissolved in 100% acetone to make a 4% solid solution. The wall forming composition is sprayed at 26 grams/min onto and around the bilayer cores in a tablet coater until a dry weight of 90 mg/core is achieved. Next, one 10 mil (0.254 mm) exit passageway is mechanically drilled through the semipermeable wall to connect the drug layer with the exterior of the dosage system. The residual solvent is removed by first drying for 120 hours at 50° C. and 30% relative humidity, then the systems are dried for 2 hours at 50° C. to remove excess moisture. The drug dosage form produced by this process provides: ˜90 wt % 1-{[(α-isobutanoyloxyethoxy)carbonyl]aminomethyl}-1-cyclohexane acetic acid, 4 wt % hydroxypropylmethylcellulose of 11,200 molecular weight, 4 wt % polyethylene oxide of 5,000,000 molecular weight and 1 wt % magnesium stearate in the drug layer. The push composition comprises 63.7 wt % polyethylene oxide of 7,500,000 molecular weight, 30 wt % sodium chloride, 5 wt % hydroxypropylmethylcellulose of 11,200 molecular weight, 1 wt % red ferric oxide, 0.25 wt % magnesium stearate, and 0.075 wt % of butylated hydroxytoluene. The wall comprises 100 wt % cellulose acetate comprising a ˜40% acetyl content. […]", "data": [{"smiles": "CC(OC(=O)NCC1(CC(=O)O)CCCCC1)OC(=O)C(C)C", "note": "(stereo not drawn) [1-{[(α-isobutanoyloxyethoxy)carbonyl]aminomethyl}-1-cyclohexane acetic acid]", "values": [{"measurement": "release rate", "result": "> 20", "unit": "mg/h"}]}]}
